Active and inactive are the calls of the source. The calls are words filed in the database; no cut-off is given here.
Assays:
[1] = Displacement of [3H]-flunitrazepam from rat brain GABA-A receptor benzodiazepine site after 20 mins by liquid scintillation counting
[2] = Drug level in human liver microsomes treated with 20 uM of zolpidem preincubated for 15 mins followed by NADPH addition measured after 60 mins by UPLC-MS/MS analysis; assay type: ADME; conditions: 1 h
[3] = Drug metabolism in human liver microsomes assessed as 2-(6-fluoro-2-(4-(hydroxymethyl)phenyl)imidazo[1,2-a]pyridin-3-yl)-N,N-dimethylacetamide formation at 20 uM preincubated for 15 mins followed by NADPH addition measured after 60 mins by UPLC-MS/MS analysis; assay type: ADME; conditions: 1 h
HepG2 [4] = test: (§1) Hepatotoxicity in human HepG2 cells assessed as decrease in cell viability after 24 hrs by PrestoBlue assay; assay type: toxicity, cell-based; conditions: hepg2, 24 h
HepG2 [5] = test: (§2) Hepatotoxicity in human HepG2 cells assessed as intracellular ATP level after 48 hrs by luminescence based ATP detection assay; assay type: toxicity, cell-based; conditions: hepg2, 48 h
[6] = target: T1, GABA-A receptor; alpha-1/beta-2/gamma-2 (Homo sapiens, UniProt P14867+P18507+P47870); test: Positive allosteric modulation of human recombinant GABA-A receptor alpha1beta2gamma2 expressed in HEK293 cells assessed as potentiation of GABA induced chloride currents treated every 60 secs measured for 7 secs by electrophysiological method; assay type: cell-based
T1 sequence (P14867 whole entry): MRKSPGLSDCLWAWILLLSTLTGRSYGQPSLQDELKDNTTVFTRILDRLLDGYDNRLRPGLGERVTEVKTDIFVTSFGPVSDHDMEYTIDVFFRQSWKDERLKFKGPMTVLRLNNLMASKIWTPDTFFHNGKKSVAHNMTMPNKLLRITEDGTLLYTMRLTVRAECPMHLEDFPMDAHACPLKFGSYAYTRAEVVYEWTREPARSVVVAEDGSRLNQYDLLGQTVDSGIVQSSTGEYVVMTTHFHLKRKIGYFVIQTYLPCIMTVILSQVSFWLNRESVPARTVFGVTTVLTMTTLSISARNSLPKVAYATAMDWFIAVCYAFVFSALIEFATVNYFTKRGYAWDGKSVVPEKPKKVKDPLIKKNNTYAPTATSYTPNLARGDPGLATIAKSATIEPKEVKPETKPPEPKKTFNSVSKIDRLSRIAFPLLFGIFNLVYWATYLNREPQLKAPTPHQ
T1 sequence (P47870 whole entry): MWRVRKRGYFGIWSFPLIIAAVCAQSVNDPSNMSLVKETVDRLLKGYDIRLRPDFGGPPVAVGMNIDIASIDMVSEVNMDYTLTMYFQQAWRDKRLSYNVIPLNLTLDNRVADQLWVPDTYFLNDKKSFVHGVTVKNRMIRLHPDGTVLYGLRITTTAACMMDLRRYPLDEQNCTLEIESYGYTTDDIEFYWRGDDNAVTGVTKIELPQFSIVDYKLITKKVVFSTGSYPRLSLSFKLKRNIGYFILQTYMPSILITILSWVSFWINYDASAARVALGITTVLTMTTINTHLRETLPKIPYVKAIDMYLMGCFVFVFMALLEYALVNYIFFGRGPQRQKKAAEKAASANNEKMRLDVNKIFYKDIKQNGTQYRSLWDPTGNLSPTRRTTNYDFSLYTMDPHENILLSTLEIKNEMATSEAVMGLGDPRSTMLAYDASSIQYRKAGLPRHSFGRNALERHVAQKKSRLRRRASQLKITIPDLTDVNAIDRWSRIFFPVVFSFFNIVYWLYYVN
T1 sequence (P18507 whole entry): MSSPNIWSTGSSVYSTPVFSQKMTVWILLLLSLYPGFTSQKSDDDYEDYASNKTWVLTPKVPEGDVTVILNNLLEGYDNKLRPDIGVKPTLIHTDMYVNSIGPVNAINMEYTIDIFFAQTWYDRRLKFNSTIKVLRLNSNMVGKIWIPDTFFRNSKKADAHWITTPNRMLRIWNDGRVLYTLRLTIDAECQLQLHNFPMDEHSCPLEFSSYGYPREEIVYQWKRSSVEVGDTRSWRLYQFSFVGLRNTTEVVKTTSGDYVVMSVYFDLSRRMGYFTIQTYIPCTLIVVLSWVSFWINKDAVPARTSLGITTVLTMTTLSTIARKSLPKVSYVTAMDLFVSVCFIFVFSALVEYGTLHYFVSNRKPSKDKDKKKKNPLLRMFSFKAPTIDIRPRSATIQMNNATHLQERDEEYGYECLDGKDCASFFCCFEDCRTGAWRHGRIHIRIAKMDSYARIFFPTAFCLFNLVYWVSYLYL

HepG2 [7] = test: (§3) Hepatotoxicity in human HepG2 cells assessed as intracellular ATP level after 24 hrs by luminescence based ATP detection assay; assay type: toxicity, cell-based; conditions: hepg2, 24 h
HepG2 [8] = test: Hepatotoxicity in human HepG2 cells assessed as cell membrane damage after 48 hrs by luminescence assay; assay type: toxicity, cell-based; conditions: hepg2, 48 h
HepG2 [9] = test: Hepatotoxicity in human HepG2 cells assessed as cell membrane damage after 24 hrs by luminescence assay; assay type: toxicity, cell-based; conditions: hepg2, 24 h
[10] = target: T2, GABA-A receptor; alpha-1/beta-2/gamma-2 (Homo sapiens) (UniProt P14867+P47870+P18507); test: Positive allosteric modulation of human recombinant GABA-A receptor alpha1beta2gamma2 expressed in HEK293 cells assessed as potentiation of GABA induced chloride currents at 1 uM treated every 60 secs measured for 7 secs by electrophysiological method; assay type: cell-based
HepG2 [11] = test: (§4) Hepatotoxicity in human HepG2 cells assessed as decrease in cell viability after 48 hrs by PrestoBlue assay; assay type: toxicity, cell-based; conditions: hepg2, 48 h
HepG2 [12] = test: (§5) Hepatotoxicity in human HepG2 cells assessed as loss of mitochondrial membrane potential after 24 hrs by JC-1 staining based fluorescence assay; assay type: toxicity, cell-based; conditions: hepg2, 24 h
Rattus norvegicus [13] = species on record: Rattus norvegicus; test: Potency index, ratio of zolpidem Ki to compound Ki for rat brain GABA-A receptor benzodiazepine site
[14] = target: T2, GABA-A receptor; alpha-1/beta-2/gamma-2 (Homo sapiens); test: Positive allosteric modulation of human recombinant GABA-A receptor alpha1beta2gamma2 expressed in HEK293 cells assessed as potentiation of GABA induced chloride currents at 1 uM treated every 60 secs measured for 7 secs by electrophysiological method relative to GABA; assay type: cell-based
[15] = Metabolic stability in human liver microsomes at 20 uM preincubated for 15 mins followed by NADPH addition measured after 60 mins by UPLC-MS/MS analysis; assay type: ADME; conditions: 1 h
[16] = Drug level in human liver microsomes treated with 20 uM of 2-(6-fluoro-2-p-tolylimidazo[1,2-a]pyridin-3-yl)-N,N-dimethylethanamide preincubated for 15 mins followed by NADPH addition measured after 60 mins by UPLC-MS/MS analysis; assay type: ADME; conditions: 1 h
Rattus norvegicus [17] = test: Toxicity in rat assessed as myorelaxant effects at 1 mg/kg, ip administered 60 mins; assay type: organism-based; conditions: in vivo, 1 h
Rattus norvegicus [18] = test: Toxicity in rat assessed as effect on behavioral changes at 1 mg/kg, ip administered 60 mins; assay type: organism-based; conditions: in vivo, 1 h
Rattus norvegicus [19] = test: Toxicity in rat assessed as decrease in spontaneous locomotor activity at 1 mg/kg, ip treated for 60 mins by open field test; assay type: organism-based; conditions: in vivo, 1 h
Rattus norvegicus [20] = test: Toxicity in rat assessed as cataleptogenic effects at 1 mg/kg, ip administered 60 mins; assay type: organism-based; conditions: in vivo, 1 h
Rattus norvegicus [21] = test: Antipsychotic activity in rat assessed as reversal of amphetamine-induced hyperlocomotion at 3 mg/kg, ip treated for 60 mins prior to test followed by amphetamine administration 15 mins prior to test by open field test; assay type: functional, organism-based
Rattus norvegicus [22] = test: Antipsychotic activity in ip dosed rat assessed as reversal of amphetamine-induced hyperlocomotion administered 30 mins before administration of amphetamine measured for 15 mins by open field test; assay type: functional
Rattus norvegicus [23] = test: Antipsychotic activity in rat assessed as reversal of amphetamine-induced hyperlocomotion at 3 mg/kg, ip treated for 30 mins prior to test followed by amphetamine administration 15 mins prior to test by open field test; assay type: functional, organism-based
Rattus norvegicus [24] = test: Antipsychotic activity in rat assessed as reversal of amphetamine-induced hyperlocomotion at 1 mg/kg, ip treated for 30 mins prior to test followed by amphetamine administration 15 mins prior to test by open field test; assay type: functional, organism-based
[25] = Plasma elimination half life in human; assay type: ADME; conditions: read-out: beta t1/2
[26] = Drug metabolism in human liver microsomes assessed as 2-(2-(4-(hydroxymethyl)phenyl)-6-methylimidazo[1,2-a]pyridin-3-yl)-N,N-dimethylacetamide formation at 20 uM preincubated for 15 mins followed by NADPH addition measured after 60 mins by UPLC-MS/MS analysis; assay type: ADME; conditions: 1 h
[27] = as §1; assay type: toxicity, cell-based; conditions: HepG2 cells
[28] = as §2; assay type: toxicity, cell-based; conditions: HepG2 cells
[29] = as §3; assay type: toxicity, cell-based; conditions: HepG2 cells
[30] = as §4; assay type: toxicity, cell-based; conditions: HepG2 cells
[31] = as §5; assay type: toxicity, cell-based; conditions: HepG2 cells

CN(C)C(=O)Cc1c(-c2ccc(F)c(F)c2)nc2ccc(F)cn12
Ki [1]: 57.5 to 58 nM

Cc1ccc2nc(-c3ccc(CO)cc3)c(CC(=O)N(C)C)n2c1
Drug metabolism [2]: Metabolite_Detected

Cc1ccc(-c2nc3ccc(F)cn3c2CC(=O)N(C)C)cc1
Drug metabolism [3]: Metabolite_Detected
Activity (HepG2 [4]): Non-Toxic
Ki [1]: 25 nM
Activity (HepG2 [5]): Non-Toxic
EC50 [6]: 1270 nM
Activity (HepG2 [7]): Non-Toxic
Activity (HepG2 [8]): Non-Toxic
Activity (HepG2 [9]): Non-Toxic
Activity [10]: Active
Activity (HepG2 [11]): Non-Toxic
Activity (HepG2 [12]): Non-Toxic
Ratio Ki (Rattus norvegicus [13]): 1.8
fold change (FC) [14]: 1.5

CN(C)C(=O)Cc1c(-c2ccc(F)cc2F)nc2ccc(F)cn12
Ki [1]: 180 nM

CN(C)C(=O)Cc1c(-c2ccc(F)cc2F)nc2ccc(C(F)(F)F)cn12
Ki [1]: 830 nM

CN(C)C(=O)Cc1c(-c2ccc(F)cc2)nc2ccc(F)cn12
Activity (HepG2 [4]): Non-Toxic
Stability [15]: Stable
Ki [1]: 55.6 to 56 nM
Activity (HepG2 [5]): Non-Toxic
EC50 [6]: 408 nM
Activity (HepG2 [7]): Non-Toxic
Activity (HepG2 [8]): Non-Toxic
Activity (HepG2 [9]): Non-Toxic
Activity [10]: Active
Activity (HepG2 [11]): Non-Toxic
Activity (HepG2 [12]): Non-Toxic
fold change (FC) [14]: 1.8

CN(C)C(=O)Cc1c(-c2cccc(F)c2)nc2ccc(F)cn12
Ki [1]: 140 nM

Cc1ccc(-c2nc3ccc(CO)cn3c2CC(=O)N(C)C)cc1
Drug metabolism [16]: Metabolite_Detected

Cc1ccc2nc(-c3ccc(F)cc3)c(CC(=O)N(C)C)n2c1
Activity (Rattus norvegicus [17]): Non-Toxic
Activity (Rattus norvegicus [18]): Toxic
Activity (HepG2 [4]): Non-Toxic
Stability [15]: Stable
Ki [1]: 59.6 to 60 nM
Activity (HepG2 [5]): Non-Toxic
EC50 [6]: 238 nM
Activity (HepG2 [7]): Non-Toxic
Activity (HepG2 [8]): Non-Toxic
Activity (HepG2 [9]): Non-Toxic
Activity (Rattus norvegicus [19]): Toxic
Activity [10]: Active
Activity (Rattus norvegicus [20]): Non-Toxic
Activity (HepG2 [11]): Non-Toxic
Activity (HepG2 [12]): Non-Toxic
Activity (Rattus norvegicus [21]): Active
Activity (Rattus norvegicus [22]): Dose-dependent effect
minimal effective dose (Rattus norvegicus [22]; read-out: MED): 1 mg/kg
Activity (Rattus norvegicus [23]): Active
fold change (FC) [14]: 1.9

CN(C)C(=O)Cc1c(-c2cccc(F)c2)nc2ccc(C(F)(F)F)cn12
Ki [1]: 730 nM

Cc1ccc(-c2nc3ccc(C)cn3c2CC(=O)N(C)C)cc1 [ZOLPIDEM]
Activity (Rattus norvegicus [24]): Active
Activity (HepG2 [4]): Non-Toxic
Stability [15]: Stable
Ki [1]: 44 nM
half-life [25]: ≤ 2 h
Activity (HepG2 [5]): Non-Toxic
Activity (HepG2 [7]): Non-Toxic
Activity (HepG2 [8]): Non-Toxic
Activity (HepG2 [9]): Non-Toxic
Activity (HepG2 [11]): Non-Toxic
Activity (HepG2 [12]): Non-Toxic
fold change (FC) [14]: 2.5
Drug metabolism [26]: Metabolite_Detected

CN(C)C(=O)Cc1c(-c2ccc(C(F)(F)F)cc2)nc2ccc(F)cn12
Ki [1]: 68 nM

CN(C)C(=O)Cc1c(-c2ccccc2)nc2ccc(F)cn12
Ki [1]: 130 nM

CN(C)C(=O)Cc1c(-c2ccc(F)cc2)nc2ccc(C(F)(F)F)cn12
Ki [1]: 510 nM

N#CC(C#N)=NNc1cccc(Cl)c1 [CARBONYL CYANIDE M-CHLOROPHENYLHYDRAZONE]
IC50 at 24 h [27]: 22000 nM
IC50 at 48 h [28]: 7200 nM
IC50 at 24 h [29]: 9800 nM
Activity (HepG2 [8]): Non-Toxic
Activity (HepG2 [9]): Non-Toxic
IC50 at 48 h [30]: 6000 nM
IC50 at 24 h [31]: 36000 nM

CN(C)C(=O)Cc1c(-c2ccc(C(F)(F)F)cc2)nc2ccc(C(F)(F)F)cn12
Ki [1]: 487 nM
